# From ChEMBL document CHEMBL5365491, “Synthesis and anti-tumor activities in human leukemia-derived cells of polyenylpyrroles with a methyl group at the conjugated polyene terminus” (Bioorg Med Chem Lett, 2023)
# What was measured:
# Type in all cases: functional, cell-based
# Raji [1] = experiment: Growth inhibition of human Raji cells measured after 72 hrs by CCK8 assay
# CCRF-CEM [2] = experiment: Antitumor activity against human CCRF-CEM cells assessed as cell killing activity
# THP-1 [3] = experiment: Growth inhibition of human THP-1 cells measured after 72 hrs by CCK8 assay; conditions: THP-1, 72 h
# TF-1 [4] = experiment: Growth inhibition of human TF-1 cells measured after 72 hrs by CCK8 assay; conditions: TF-1, 72 h
# K562 [5] = experiment: Growth inhibition of human K562 cells measured after 72 hrs by CCK8 assay; conditions: K562, 72 h
# THP-1 [6] = experiment: Antitumor activity against human THP-1 cells assessed as inhibition in cell killing activity
# TF-1 [7] = experiment: Antitumor activity against human TF-1 cells assessed as inhibition in cell killing activity
# CCRF-CEM [8] = experiment: Growth inhibition of human CCRF-CEM cells measured after 72 hrs by CCK8 assay
# K562 [9] = experiment: Antitumor activity against human K562 cells assessed as inhibition in cell killing activity
# Raji [10] = experiment: Antitumor activity against human Raji cells assessed as cell killing activity
Compound,IC50 (Raji [1]) [nM],IC50 (CCRF-CEM [2]; read-out: pIC50 (converted)) [nM],IC50 (THP-1 [6]) [nM],IC50 (TF-1 [7]) [nM],IC50 (K562 [9]) [nM],IC50 (CCRF-CEM [2]; read-out: IC50) [nM],IC50 (Raji [10]) [nM],other results
CCOC(=O)/C=C/C=C/C=C/C=C/c1[nH]ccc1Cl,10000,251,,,,,,IC50 (THP-1 [3]): 1200 nM; IC50 (TF-1 [4]): 230 nM; IC50 (K562 [5]): > 10000 nM
CCOC(=O)/C=C/C=C/C=C/C=C/c1ccc[nH]1,,1260,770,250,,,,
COc1cc(\C(C)=C/C=C/C=C/C=C/c2[nH]ccc2Cl)oc(=O)c1C,10000,1580,,,,,,
CCOC(=O)/C=C/C=C/C=C/C=C/c1cccn1C,10000,> 10000,,,,,,IC50 (CCRF-CEM [8]): 10000 nM
CCOC(=O)/C(C)=C/C=C/C=C/C=C/c1ccc[nH]1,,79.4,98,92,280,90,1600,
CCOC(=O)/C(C)=C/C=C/c1[nH]ccc1Cl,,7940,,,,8400,> 10000,
CCOC(=O)/C(C)=C/C=C/C=C/C=C/c1[nH]ccc1Cl,,63.1,150,37,1600,63,> 10000,
CCOC(=O)/C(C)=C/C=C/C=C/c1[nH]ccc1Cl,,251,,,,230,> 10000,
CCOC(=O)/C(C)=C/C=C/C=C/C=C/c1cccn1C,,> 10000,,,,> 10000,> 10000,
COc1cc(/C=C/C=C/C=C/C=C/c2[nH]ccc2Cl)oc(=O)c1 [AUXARCONJUGATIN B],,501,1300,440,4900,,,
